Converted amounts (≈) assume the structure as drawn. The source made the active and inactive calls. The rule behind the calls is not given here.
Legend:
DNA gyrase = DNA gyrase (Escherichia coli, UniProt P0AES4+P0AES6); experiment: Inhibition of Escherichia coli DNA gyrase(A2B2 tetramer) preincubated for 5 mins followed by ATP addition and measured once per minute for 20 to 30 minutes by ATPase assay; assay type: protein-complex assay
Staphylococcus aureus = experiment: Antibacterial activity against Staphylococcus aureus ATCC 29213 assessed as reduction in microbial growth by CLSI based broth microdilution method; assay type: functional
Escherichia coli = experiment: Antibacterial activity against Escherichia coli ATCC 25922 assessed as reduction in microbial growth by CLSI based broth microdilution method; assay type: functional
[1] = target: DNA topoisomerase 2-alpha (Homo sapiens) (UniProt P11388); experiment: Inhibition of human topoisomerase-2alpha up to 100 uM
[2] = Efflux ratio of apparent permeability across basolateral to apical over apical to basolateral side in human Caco2 cells; assay type: ADME, cell-based; conditions: Caco-2
[3] = Protein binding in human plasma; assay type: ADME, cell-free; conditions: read-out: PPB (converted)
[4] = Aqueous solubility of compound; assay type: physicochemical
[5] = Half life in human liver microsomes; assay type: ADME, Microsome
[6] = Apparent permeability across apical to basolateral side in human Caco2 cells; assay type: ADME, cell-based; conditions: Caco-2
[7] = Half life in mouse liver microsomes; assay type: ADME, Microsome

Sequence of DNA topoisomerase 2-alpha (Homo sapiens) (P11388 whole entry): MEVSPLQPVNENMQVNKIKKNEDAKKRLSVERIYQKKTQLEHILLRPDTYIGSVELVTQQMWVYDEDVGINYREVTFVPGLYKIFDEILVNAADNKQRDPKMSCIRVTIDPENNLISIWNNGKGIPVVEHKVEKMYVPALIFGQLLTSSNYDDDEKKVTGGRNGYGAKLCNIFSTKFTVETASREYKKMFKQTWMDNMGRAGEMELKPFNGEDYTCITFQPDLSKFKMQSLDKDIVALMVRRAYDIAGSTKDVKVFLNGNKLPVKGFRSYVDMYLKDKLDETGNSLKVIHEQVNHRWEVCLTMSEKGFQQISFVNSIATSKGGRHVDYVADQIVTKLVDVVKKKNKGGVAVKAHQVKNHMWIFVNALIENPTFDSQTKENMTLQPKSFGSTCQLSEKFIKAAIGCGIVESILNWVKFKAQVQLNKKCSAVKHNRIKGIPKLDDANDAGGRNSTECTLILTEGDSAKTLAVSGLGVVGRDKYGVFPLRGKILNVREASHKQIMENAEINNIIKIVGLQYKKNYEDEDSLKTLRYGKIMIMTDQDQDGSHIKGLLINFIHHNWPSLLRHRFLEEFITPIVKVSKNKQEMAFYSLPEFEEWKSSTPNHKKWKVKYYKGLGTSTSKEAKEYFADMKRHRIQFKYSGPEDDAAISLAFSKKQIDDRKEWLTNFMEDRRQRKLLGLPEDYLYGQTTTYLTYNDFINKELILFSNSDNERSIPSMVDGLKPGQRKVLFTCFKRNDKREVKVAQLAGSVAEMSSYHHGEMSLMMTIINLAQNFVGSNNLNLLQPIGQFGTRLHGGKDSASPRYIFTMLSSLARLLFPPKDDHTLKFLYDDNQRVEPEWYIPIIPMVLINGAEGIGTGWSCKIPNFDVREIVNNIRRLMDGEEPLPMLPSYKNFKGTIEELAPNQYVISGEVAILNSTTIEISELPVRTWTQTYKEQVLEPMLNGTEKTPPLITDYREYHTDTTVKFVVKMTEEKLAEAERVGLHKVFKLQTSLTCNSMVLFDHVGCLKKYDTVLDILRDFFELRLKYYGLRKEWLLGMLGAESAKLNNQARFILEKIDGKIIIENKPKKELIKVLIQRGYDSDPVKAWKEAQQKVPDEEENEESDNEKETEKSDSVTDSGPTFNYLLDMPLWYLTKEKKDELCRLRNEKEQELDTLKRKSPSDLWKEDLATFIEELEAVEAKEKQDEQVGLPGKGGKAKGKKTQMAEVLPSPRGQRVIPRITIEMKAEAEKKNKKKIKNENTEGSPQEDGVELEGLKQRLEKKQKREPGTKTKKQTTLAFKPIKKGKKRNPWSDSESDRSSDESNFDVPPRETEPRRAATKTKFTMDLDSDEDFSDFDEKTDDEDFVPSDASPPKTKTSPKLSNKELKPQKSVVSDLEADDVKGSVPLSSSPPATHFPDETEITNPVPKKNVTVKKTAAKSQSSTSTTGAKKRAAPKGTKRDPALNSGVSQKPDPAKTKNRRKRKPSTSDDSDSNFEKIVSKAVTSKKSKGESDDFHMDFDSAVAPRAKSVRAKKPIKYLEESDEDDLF

Compound	IC50 (DNA gyrase)	MIC (Staphylococcus aureus)	MIC (Escherichia coli)	inhibition [1]	efflux ratio [2]	fraction unbound [3]	solubility [4]	half-life [5]	Papp A→B [6]	half-life [7]
CCNC(=O)Nc1cc(Nc2ccc(OC)cc2)c(C(=O)Nc2cccnc2)cn1	19 nM	4 µg/mL	> 64 µg/mL	inactive	2.82	0.028	2.4 µM (≈ 0.975 µg/mL)	20 min	11.8 ×10⁻⁶ cm/s	
CCNC(=O)Nc1cc(N2CCC(N)C2)c(C(=O)Nc2cccnc2)cn1 (stereo not given)	89 nM	> 64 µg/mL	> 64 µg/mL	inactive	2.78	0.498	88.5 µM (≈ 32.7 µg/mL)	290 min	4.02 ×10⁻⁶ cm/s	
CCNC(=O)Nc1cc(Nc2ccccc2O)c(C(=O)Nc2cccnc2)cn1	410 nM	> 64 µg/mL	> 64 µg/mL							
CCNC(=O)Nc1cc(Nc2cccc(C)c2)c(C(=O)Nc2cccc(C)c2)cn1						0.001	4.26 µM (≈ 1.72 µg/mL)	46 min	< 2.67 ×10⁻⁶ cm/s	58 min

Other lines, results leading:

IC50 (DNA gyrase)	MIC (Staphylococcus aureus)	MIC (Escherichia coli)	inhibition [1]	efflux ratio [2]	fraction unbound [3]	solubility [4]	half-life [5]	Papp A→B [6]	half-life [7]	Compound
82 nM	> 64 µg/mL	> 64 µg/mL								CCNC(=O)Nc1cc(-n2cncn2)c(C(=O)Nc2cccnc2)cn1
200 nM										CCNC(=O)Nc1cc(-n2ccnn2)c(C(=O)Nc2cccnc2)cn1
86 nM	64 µg/mL	> 64 µg/mL	inactive	30.8	0.095	32.6 µM (≈ 11.5 µg/mL)	128 min	1.23 ×10⁻⁶ cm/s	24 min	CCNC(=O)Nc1cc(-n2cccn2)c(C(=O)Nc2cccnc2)cn1
120 nM	64 µg/mL	> 64 µg/mL								CCNC(=O)Nc1cc(N2CCCC2)c(C(=O)Nc2cccnc2)cn1
37 nM	16 µg/mL	> 64 µg/mL	inactive							CCNC(=O)Nc1cc(-n2cc(Br)cn2)c(C(=O)Nc2cccnc2)cn1
150 nM	64 µg/mL	> 64 µg/mL								CCNC(=O)Nc1cc(-n2nccn2)c(C(=O)Nc2cccnc2)cn1
